Results published in patent US6013628A, “Method for treating conditions of the eye using polypeptides” (Regents of the University of Minnesota, priority 1995, dated 2000).
No end group written: not given here.

Experiments:
Type in all cases: in vivo
rabbit eye = assay: Intravitreal polypeptide toxicity in rabbit eye (ERG, clinical observations, histology)
Method: The toxicity of the polypeptides was determined by three techniques:
ERG. Electroretinograms (ERG) were carried out as a functional indicator of toxicity of a polypeptide treatment. Polypeptides were injected at 200 ug and 400 ug (twice the dose that inhibited proliferative vitreoretinopathy), and ERG measurements were performed three times in each eye at various times post-injection (1 hr to 6 weeks).
Clinical observations. Observation by indirect ophthalmoscopy and slit lamp examination were performed to probe for evidence of toxicity.
Histology. Following ERG and clinical observations, the eyes were immediately enucleated, fixed in 10% formalin, paraffin embedded, sectioned at 7 microns, and stained with hematoxylin and eosin.

[1] = tested on: proliferative vitreoretinopathy in rabbits; assay: Rabbit model of experimental proliferative vitreoretinopathy (intravitreal fibroblast injection)
Method: The rabbit model for proliferative vitreoretinopathy is described in Thresher et al., Graefe's Arch. Clin. Exp. Ophthalmol., 221, 192-198 (1984). Adult Dutch Belted rabbits of both sexes were used in the study. All animals were treated according to ARVO Animal Use Guidelines. All eyes were examined prior to initiation of a study and only clinically normal animals were used.
The rabbits were anesthetized using an intramuscular injection of a mix of ketamine (30 mg/kg) and xylazine (5 mg/kg). Pupils were dilated with Mydriacyl (Tropicamide) 1% and Neosynephrine 2.5% topical drops. Topical conjunctival anesthesia was provided with Proparacaine […] drops. All procedures were performed in an approved animal surgical facility. […] This site was used for subsequent intraocular injections, preventing iatrogenic retinal tears at the injection site. An intravitreal injection of 0.4 cc millipore-filtered 100% perfluoropropane gas was administered to produce a gas compression vitrectomy. Once the expansile gas bubble had absorbed, 5-10×10^4 dermal rabbit fibroblasts with or without 200 μg of polypeptide (injection volume-0.1 cc) were injected through a 27 gauge needle into the vitreous cavity. Under indirect ophthalmoscopic visualization, the tip of the needle was placed over the optic nerve head and the cells were injected in this location.
The animals were then observed for the development of proliferative vitreoretinopathy. The final stage of retinal detachment was scored from 0 to 7 using the standard grading scale shown below (see Hida et al., Graefe's Arch. Clin. Exp. Ophthalmol., 225, 1763-1769 (1991)).
Retinal photographs were taken with a wide field fundus camera (Canon) to document the final stage of retinal detachment. Animals were sacrificed while under deep anesthesia with an intravenous injection of 1 cc of euthanasia solution. The eyes were then immediately enucleated, fixed in 10% formalin, paraffin embedded, sectioned at 7 microns, and stained with hematoxylin and eosin for histology.
Three weeks following peripheral retinal cryopexy and gas compression vitrectomy, rabbit fibroblasts incubated for 1 hr with 200 ug of laminin polypeptide R37, type IV collagen polypeptide Hep-II, or BSS (balanced saline solution; control) were injected intravitreally. One eye of each rabbit received polypeptide incubated fibroblasts and the other eye received the control cells. Eyes were examined every three days, and the degree of retinal detachment was graded on the standard scale described above.

[2] = tested on: filtration surgery in rabbits; assay: Rabbit model of glaucoma filtration surgery failure; design: IOP: unit not given here
Method: The rabbit model for filtration surgery is described by Bergstrom TJ, and Skuta GL. et al. in Arch. Ophthalmol, 109(12):1725-30, 1991. Two New Zealand white albino rabbits were used in the study. All animals were treated according to ARVO Animal Use Guidelines. All eyes were examined prior to initiation of a study and only clinically normal animals were used.
All the rabbits underwent preoperative examination and the intraocular pressure (IOP) was measured by pneumatonometry (PneumaTonometer, Digilab Model 30R, Cambridge, Mass.). The rabbits were anesthetized using an intramuscular injection of a mix of ketamine (30 mg/kg) and xylazine (5 mg/kg). A posterior lip sclerectomy was then performed on both eyes of each animal during the same period of anesthesia. […] The superotemporal conjuctiva and Tenon's capsule was incised near the fornix, and the dissection was performed anteriorly to the limbus. The anterior chamber was entered at the filtration site and a 1-mm by 3-mm block of limbal scleral tissue was excised from the posterior lip of the wound with the Kelly-Descemet punch. A peripheral iridectomy was then performed with Vannas scissors and curved jeweler's forceps. Hand-held thermal cautery was used as needed to provide hemostasis. The conjunctiva was closed with a running 10-0 nylon suture. The right eye received subconjunctival injection of the Hep-II dissolved in 0.15 ml distilled water at the end of the filtration surgery and the left eye, which served as the control, received an equal volume of distilled water. These and each of the subsequent injections were made into the area of the bleb. No prophylactic antibiotics, cycloplegic, or corticosteroid was applied to either eye intraoperatively or postoperatively. Postoperative evaluation included examination with a portable slit-lamp biomicroscope, evaluation of the filtering bleb and intraocular pressure measurements obtained with a pneumatonometer. At the end of the study the animals were sacrificed while under anesthesia with an intravenous injection of 1 cc of euthanasia solution.
The results of filtration surgery were evaluated by monitoring intraocular pressures and visual inspection of scarring and vascularization. The ability of ability of a synthetic polypeptide to prolong the effect of glaucoma treatment by filtration surgery was examined using the rabbit model. The right eye was treated with subconjunctival injection of 1 milligram of Hep-II dissolved in 0.15 ml of distilled water at the end of filtration surgery and every other day for a total of eight injections. The left eye served as the control and received an equal volume of distilled water on those days. The intraocular pressures (IOP) were checked using a pneumatonometer every day until day 9 and roughly every other day until day 28 (Table V and FIG. 27). […] Control eyes reached pre-operative pressures between about day 4 and day 9.

## LAGSCLARFSTM [Hep-II, Leu-Ala-Gly-Ser-Cys-Leu-Ala-Arg-Phe-Ser-Thr-Met]
Rabbit eye; 6 weeks after injection of 200 ug in 0.1 ml
  Fundus appearance: indistinguishable from the control eye
Rabbit eye; intravitreal injection of 200 ug or 400 ug
  Toxic effects by clinical observations, histopathology or ERG: No toxic effects
[1]; 200 ug with 100,000 fibroblasts, seven weeks after fibroblast injection
  Retina appearance (stage 0-7 scale), fundus photograph: normal (Stage 0)
[1]; Expt I: 200 ug, 50,000 cells, RD staged at day 21, control 66%
  # Detached Retinas (%): 17%
[1]; Expt I: 200 ug, 50,000 cells, RD staged at day 21, total 6 eyes, control 4 of 6
  # Detached Retinas: 1
[1]; fibroblasts incubated 1 hr with 200 ug polypeptide, intravitreal
  Degree of retinal detachment: inhibited the degree of retinal detachment
[2]; 1 milligram subconjunctival every other day, eight injections, 28 days, p<0.001
  IOP in treated eyes versus control eyes: lower than the control eyes
[2]; Rabbit #3 OD (1 milligram Hep-II subconjunctival, eight injections), Post op #1, Pre op 32, control OS 22
  IOP: 24
[2]; Rabbit #3 OD (1 milligram Hep-II subconjunctival, eight injections), Post op #2, Pre op 32, control OS 31
  IOP: 30
[2]; Rabbit #3 OD (1 milligram Hep-II subconjunctival, eight injections), Post op #3, Pre op 32, control OS 30
  IOP: 25
[2]; Rabbit #3 OD (1 milligram Hep-II subconjunctival, eight injections), Post op #4, Pre op 32, control OS 32
  IOP: 23
[2]; Rabbit #3 OD (1 milligram Hep-II subconjunctival, eight injections), Post op #5, Pre op 32, control OS 32
  IOP: 22
[2]; Rabbit #3 OD (1 milligram Hep-II subconjunctival, eight injections), Post op #6, Pre op 32, control OS 32
  IOP: 21
[2]; Rabbit #3 OD (1 milligram Hep-II subconjunctival, eight injections), Post op #7, Pre op 32, control OS 30
  IOP: 21
[2]; Rabbit #3 OD (1 milligram Hep-II subconjunctival, eight injections), Post op #8, Pre op 32, control OS 31
  IOP: 24
[2]; Rabbit #3 OD (1 milligram Hep-II subconjunctival, eight injections), Post op #9, Pre op 32, control OS 30
  IOP: 22
[2]; Rabbit #3 OD (1 milligram Hep-II subconjunctival, eight injections), Post op #13, Pre op 32, control OS 30
  IOP: 24
[2]; Rabbit #3 OD (1 milligram Hep-II subconjunctival, eight injections), Post op #14, Pre op 32, control OS 28
  IOP: 18
[2]; Rabbit #3 OD (1 milligram Hep-II subconjunctival, eight injections), Post op #15, Pre op 32, control OS 33
  IOP: 25
[2]; Rabbit #3 OD (1 milligram Hep-II subconjunctival, eight injections), Post op #16, Pre op 32, control OS 35
  IOP: 27
[2]; Rabbit #3 OD (1 milligram Hep-II subconjunctival, eight injections), Post op #18, Pre op 32, control OS 34
  IOP: 26
[2]; Rabbit #3 OD (1 milligram Hep-II subconjunctival, eight injections), Post op #20, Pre op 32, control OS 32
  IOP: 25
[2]; Rabbit #3 OD (1 milligram Hep-II subconjunctival, eight injections), Post op #21, Pre op 32, control OS 32
  IOP: 28
[2]; Rabbit #3 OD (1 milligram Hep-II subconjunctival, eight injections), Post op #24, Pre op 32, control OS 32
  IOP: 26
[2]; Rabbit #3 OD (1 milligram Hep-II subconjunctival, eight injections), Post op #27, Pre op 32, control OS 34
  IOP: 33
[2]; Rabbit #3 OD (1 milligram Hep-II subconjunctival, eight injections), Post op #28, Pre op 32, control OS 35
  IOP: 33
[2]; Rabbit #4 OD (1 milligram Hep-II subconjunctival, eight injections), Post op #1, Pre op 34, control OS 25
  IOP: 24
[2]; Rabbit #4 OD (1 milligram Hep-II subconjunctival, eight injections), Post op #2, Pre op 34, control OS 25
  IOP: 30
[2]; Rabbit #4 OD (1 milligram Hep-II subconjunctival, eight injections), Post op #3, Pre op 34, control OS 20
  IOP: 22
[2]; Rabbit #4 OD (1 milligram Hep-II subconjunctival, eight injections), Post op #4, Pre op 34, control OS 25
  IOP: 22
[2]; Rabbit #4 OD (1 milligram Hep-II subconjunctival, eight injections), Post op #5, Pre op 34, control OS 30
  IOP: 24
[2]; Rabbit #4 OD (1 milligram Hep-II subconjunctival, eight injections), Post op #6, Pre op 34, control OS 31
  IOP: 23
[2]; Rabbit #4 OD (1 milligram Hep-II subconjunctival, eight injections), Post op #7, Pre op 34, control OS 30
  IOP: 23
[2]; Rabbit #4 OD (1 milligram Hep-II subconjunctival, eight injections), Post op #8, Pre op 34, control OS 32
  IOP: 25
[2]; Rabbit #4 OD (1 milligram Hep-II subconjunctival, eight injections), Post op #9, Pre op 34, control OS 37
  IOP: 26
[2]; Rabbit #4 OD (1 milligram Hep-II subconjunctival, eight injections), Post op #13, Pre op 34, control OS 32
  IOP: 27
[2]; Rabbit #4 OD (1 milligram Hep-II subconjunctival, eight injections), Post op #14, Pre op 34, control OS 27
  IOP: 20
[2]; Rabbit #4 OD (1 milligram Hep-II subconjunctival, eight injections), Post op #15, Pre op 34, control OS 35
  IOP: 25
[2]; Rabbit #4 OD (1 milligram Hep-II subconjunctival, eight injections), Post op #16, Pre op 34, control OS 37
  IOP: 28
[2]; Rabbit #4 OD (1 milligram Hep-II subconjunctival, eight injections), Post op #18, Pre op 34, control OS 35
  IOP: 27
[2]; Rabbit #4 OD (1 milligram Hep-II subconjunctival, eight injections), Post op #20, Pre op 34, control OS 34
  IOP: 27
[2]; Rabbit #4 OD (1 milligram Hep-II subconjunctival, eight injections), Post op #21, Pre op 34, control OS 40
  IOP: 32
[2]; Rabbit #4 OD (1 milligram Hep-II subconjunctival, eight injections), Post op #24, Pre op 34, control OS 34
  IOP: 28
[2]; Rabbit #4 OD (1 milligram Hep-II subconjunctival, eight injections), Post op #27, Pre op 34, control OS 36
  IOP: 33
[2]; Rabbit #4 OD (1 milligram Hep-II subconjunctival, eight injections), Post op #28, Pre op 34, control OS 36
  IOP: 35
[2]; rabbits in vivo
  Effect on duration of filtration surgery effect: prolongs the effect of filtration surgery
[2]; treated eyes, control eyes until day 10
  Day until which blebs remained avascular (appeared functional): 18 days
